Columns and labels:
[1] = system: postherpetic neuralgia (PHN); assay: Tumescent treatment of patients with established postherpetic neuralgia (PHN); format: in vivo, human; settings: B12 added to TEL[AT] in acute zoster
Description: “Hotspot pain” is the area within the dermatome where the zoster pain is clearly the most intense. […] “Elsewhere pain” is zoster pain that affects areas within the dermatome other than the hotspot.

[2] = Stability of vitamin B12 for injection and of its pink colour; format: physicochemical
Description: When Klein placed a purchase order for their first vial of injectable B12, they had no idea that the solution would have a red/pink color. When 10 mg in 10 ml of B12 was added to 1,000 ml of TELTA (1:100 dilution of B12), the result was a TELTAB solution with a distinctive pink color. […] They thought the novel pink color would be memorable and an interesting topic of conversation. […] The next conceptual step was the idea that the pink color of TELTAB might be a clever marketing gimmick, which could distinguish TELTAB from all other bags of saline.

[3] = system: acute Herpes zoster (shingles); settings: cited from earlier work

Molecule: Cobalamin [B12]
- incidence of PHN [1]: reduced the incidence of PHN
- stability of pink pigment over time [2]: does not appear to fade over time
- stability of nutritional function on exposure to light ([2]; light): not stable when exposed to light
- effect on pain of acute Herpes zoster compared to placebo ([3]; B12 1 mg/ml, 2 weeks): gradually reduce the pain of acute Herpes zoster

Molecule: Cc1ncc(C[n+]2csc(CCO)c2C)c(N)n1 [Undiluted vitamin B1, Thiamine]
- reduction of zoster-related intensely painful itching compared to placebo ([3]; 2-week protocol of multiple daily injections): 30%
